Measured values as given in patent US8383139B2 (Bayer CropScience AG, priority 2008, dated 2013).

Columns and labels:
[1] = tested on: Uromyces appendiculatus; experiment: Uromyces test (beans)/protective; format: in vivo; conditions: 240 h, 100 ppm active substance, protective, evaluation 10 days after inoculation, read-out: degree of effectiveness
Procedure: (§1) • Solvents: 24.5 parts by weight of acetone • 24.5 parts by weight of dimethylacetamide • Emulsifier: 1 part by weight of alkylaryl polyglycol ether (polyoxyethylene (16) tristearylphenyl ether)
(§2) To prepare a suitable active substance composition, 1 part by weight of active substance is mixed with the given amounts of solvents and emulsifier and the concentrate is diluted to the desired concentration using water.
For the testing of protective effectiveness, young plants are sprayed with the active substance composition in the application rate given. After the spray coating has been dried on, the plants are inoculated with an aqueous suspension of the spores of the bean rust pathogen Uromyces appendiculatus and then remain in an incubation chamber at approximately 20° C. and 100% relative humidity for 1 day.
The plants are then placed in a greenhouse at approximately 21° C. and a relative humidity of approximately 90%.
Evaluation is carried out 10 days after the inoculation. In this connection, 0% means a degree of effectiveness corresponding to that of the control, while a degree of effectiveness of 100% means that no infestation is observed.

[2] = tested on: Septoria tritici; experiment: Septoria tritici test (wheat)/protective; format: in vivo; conditions: Zymoseptoria tritici, 504 h, 500 ppm active substance, protective, evaluation 21 days after inoculation, read-out: degree of effectiveness
Procedure: • Solvent: 50 parts by weight of N,N-dimethylacetamide • Emulsifier: 1 part by weight of alkylaryl polyglycol ether (polyoxyethylene (16) tristearylphenyl ether) To prepare a suitable active substance composition, 1 part by weight of active substance is mixed with the given amounts of solvent and emulsifier and the concentrate is diluted to the desired concentration using water. For the testing of protective effectiveness, young plants are sprayed with the active substance composition at the application rate given. After the spray coating has dried on, the plants are sprayed with a suspension of spores of Septoria tritici. The plants remain in an incubation chamber at 20° C. and 100% relative humidity for 48 hours. The plants are afterwards placed under a transparent hood at 15° C. and 100% relative humidity for a further 60 hours. The plants are placed in a greenhouse at a temperature of approximately 15° C. and a relative humidity of 80%. Evaluation is carried out 21 days after the inoculation. In this connection, 0% means a degree of effectiveness corresponding to that of the control, while a degree of effectiveness of 100% means that no infestation is observed.

[3] = tested on: Sphaerotheca fuliginea; experiment: Sphaerotheca test (cucumber)/protective; format: in vivo; conditions: Podosphaera fuliginea, 168 h, 500 ppm active substance, protective, evaluation 7 days after inoculation, read-out: degree of effectiveness
Procedure: • Solvents: 49 parts by weight of N,N-dimethylformamide • Emulsifier: 1 part by weight of alkylaryl polyglycol ether (polyoxyethylene (16) tristearylphenyl ether) To prepare a suitable active substance composition, 1 part by weight of active substance is mixed with the given amounts of solvents and emulsifier and the concentrate is diluted to the desired concentration using water. For the testing of protective effectiveness, young cucumber plants are sprayed with the active substance composition in the application rate given. One day after the treatment, the plants are inoculated with a suspension of spores of Sphaerotheca fuliginea. Subsequently, the plants are placed in a greenhouse at 70% relative humidity and at a temperature of 23° C. Evaluation is carried out 7 days after the inoculation. In this connection, 0% means a degree of effectiveness corresponding to that of the control, while a degree of effectiveness of 100% means that no infestation is observed.

[4] = tested on: Puccinia triticina; experiment: Puccinia triticina test (wheat)/protective; format: in vivo; conditions: 192 h, 500 ppm active substance, protective, evaluation 8 days after inoculation, read-out: degree of effectiveness
Procedure: • Solvent: 50 parts by weight of N,N-dimethylacetamide • Emulsifier: 1 part by weight of alkylaryl polyglycol ether (polyoxyethylene (16) tristearylphenyl ether) To prepare a suitable active substance composition, 1 part by weight of active substance is mixed with the given amounts of solvent and emulsifier and the concentrate is diluted to the desired concentration using water. For the testing of protective effectiveness, young plants are sprayed with the active substance composition in the application rate given. After the spray coating has been dried on, the plants are sprayed with spores with a suspension of spores of Puccinia triticina. The plants remain in an incubation chamber at 20° C. and 100% relative humidity for 48 hours. The plants are placed in a greenhouse at a temperature of approximately 20° C. and a relative humidity of approximately 80%. Evaluation is carried out 8 days after the inoculation. In this connection, 0% means a degree of effectiveness corresponding to that of the control, while a degree of effectiveness of 100% means that no infestation is observed.

[5] = log P by HPLC on reversed-phase columns (C 18), EEC Directive 79/831 Annex V.A8; format: physicochemical; conditions: reversed-phase C18 HPLC column, pH 2.3, [a] HPLC, acid region pH 2.3, 0.1% aqueous phosphoric acid and acetonitrile; read-out: log p
[6] = tested on: Alternaria solani; experiment: Alternaria test (tomato)/protective; format: in vivo; conditions: 72 h, 100 ppm active substance, protective, evaluation 3 days after inoculation, read-out: degree of effectiveness
Procedure: as §1, §2
For the testing of protective effectiveness, young plants are sprayed with the active substance composition in the application rate given. After the spray coating has been dried on, the plants are inoculated with an aqueous suspension of spores of Alternaria solani. The plants are then placed in an incubation chamber at approximately 20° C. and 100% relative humidity.
Evaluation is carried out 3 days after the inoculation. In this connection, 0% means a degree of effectiveness corresponding to that of the control, while a degree of effectiveness of 100% means that no infestation is observed.

chromatographic logP [5] | Structure (SMILES) | pest or weed control at 100 ppm [1] [%] | pest or weed control at 500 ppm [2] [%] | pest or weed control at 500 ppm [3] [%] | pest or weed control at 500 ppm [4] [%] | pest or weed control at 100 ppm [6] [%]
2.53 | Cc1cc(Oc2nc(Cc3ccc(Cl)cc3)ns2)c(Cl)cc1N=CN1CCCCC1 [Example 4, 5-chloro-4-{[3-(4-chlorobenzyl)-1,2,4-thiadiazol-5-yl]oxy}-2-methyl-N-(piperidin-1-ylmethylidene)aniline] | ≥ 70 | ≥ 70 | ≥ 70 | ≥ 70 | 
2.24 | Cc1cc(Oc2nc(Cc3ccc(Cl)cc3Cl)ns2)c(C)cc1N=CN(C)C(C)C [Example 12, N′-(4-{[3-(2,4-dichlorobenzyl)-1,2,4-thiadiazol-5-yl]oxy}-2,5-dimethylphenyl)-N-methyl-N-(propan-2-yl)imidoformamide] | ≥ 70 | ≥ 70 | ≥ 70 | ≥ 70 | 
2.28 | CCN(C)C=Nc1cc(C)c(Oc2nc(Cc3cc(Br)ccc3C)ns2)cc1C [Example 14, N′-(4-{[3-(5-bromo-2-methylbenzyl)-1,2,4-thiadiazol-5-yl]oxy}-2,5-dimethylphenyl)-N-ethyl-N-methylimidoformamide] | ≥ 70 | ≥ 70 | ≥ 70 | ≥ 70 | 
2.41 | Cc1cc(Oc2nc(C(C)c3ccc(Cl)cc3)ns2)c(C)cc1N=CN1CCCCC1 (centres unmarked) [Example 18, 4-({3-[1-(4-chlorophenyl)ethyl]-1,2,4-thiadiazol-5-yl}oxy)-2,5-dimethyl-N-(piperidin-1-ylmethylidene)aniline] | ≥ 70 |  | ≥ 70 | ≥ 70 | 
2.52 | Cc1cc(Oc2nc(C(C)c3ccc(Cl)cc3)ns2)c(Cl)cc1N=CN(C)C(C)C (centres unmarked) [Example 22, N′-[5-chloro-4-({3-[1-(4-chlorophenyl)ethyl]-1,2,4-thiadiazol-5-yl}oxy)-2-methylphenyl]-N-methyl-N-(propan-2-yl)imidoformamide] | ≥ 70 |  |  | ≥ 70 | ≥ 70
2.71 | Cc1cc(Oc2nc(C(C)(C)c3ccc(Cl)cc3)ns2)c(C)cc1N=CN(C)C(C)C [Example 27, N′-[4-({3-[2-(4-chlorophenyl)propan-2-yl]-1,2,4-thiadiazol-5-yl}oxy)-2,5-dimethylphenyl]-N-methyl-N-(propan-2-yl)imidoformamide] | ≥ 70 |  | ≥ 70 |  | ≥ 70
2.96 | Cc1cc(Oc2nc(C(C)(C)c3ccc(Cl)cc3)ns2)c(Cl)cc1N=CN1CCCCC1 [Example 29, 5-chloro-4-({3-[2-(4-chlorophenyl)propan-2-yl]-1,2,4-thiadiazol-5-yl}oxy)-2-methyl-N-(piperidin-1-ylmethylidene)aniline] |  | ≥ 70 | ≥ 70 | ≥ 70 | ≥ 70
2.13 | Cc1cc(Oc2nc(Cc3cccc(Cl)c3)ns2)c(C)cc1N=CN1CCCCC1 [Example 34, 4-{[3-(3-chlorobenzyl)-1,2,4-thiadiazol-5-yl]oxy}-2,5-dimethyl-N-(piperidin-1-ylmethylidene)aniline] | ≥ 70 | ≥ 70 | ≥ 70 | ≥ 70 | 
2.6 | Cc1cc(Oc2nc(C3(c4ccc(Cl)cc4)CC3)ns2)c(C)cc1N=CN1CCCCC1 [Example 38, 4-({3-[1-(4-chlorophenyl)cyclopropyl]-1,2,4-thiadiazol-5-yl}oxy)-2,5-dimethyl-N-(piperidin-1-ylmethylidene)aniline] |  | ≥ 70 | ≥ 70 | ≥ 70 | ≥ 70
2.57 | Cc1cc(Oc2nc(C3(c4ccc(Cl)cc4)CC3)ns2)c(C)cc1N=CN(C)C(C)C [Example 39, N′-[4-({3-[1-(4-chlorophenyl)cyclopropyl]-1,2,4-thiadiazol-5-yl}oxy)-2,5-dimethylphenyl]-N-methyl-N-(propan-2-yl)imidoformamide] |  | ≥ 70 | ≥ 70 | ≥ 70 | ≥ 70
2.76 | Cc1cc(Oc2nc(C3(c4ccc(Cl)cc4)CC3)ns2)c(Cl)cc1N=CN1CCCCC1 [Example 44, 5-chloro-4-({3-[1-(4-chlorophenyl)cyclopropyl]-1,2,4-thiadiazol-5-yl}oxy)-2-methyl-N-(piperidin-1-ylmethylidene)aniline] |  | ≥ 70 | ≥ 70 | ≥ 70 | ≥ 70
1.84 | Cc1cc(Oc2nc(Cc3ccc4c(c3)OCO4)ns2)c(C)cc1N=CN1CCCCC1 [Example 45, 4-{[3-(1,3-benzodioxol-5-ylmethyl)-1,2,4-thiadiazol-5-yl]oxy}-2,5-dimethyl-N-(piperidin-1-ylmethylidene)aniline] |  | ≥ 70 | ≥ 70 | ≥ 70 | ≥ 70
1.65 | CCN(C)C=Nc1cc(C)c(Oc2nc(Cc3ccc4c(c3)OCO4)ns2)cc1C [Example 46, N′-(4-{[3-(1,3-benzodioxol-5-ylmethyl)-1,2,4-thiadiazol-5-yl]oxy}-2,5-dimethylphenyl)-N-ethyl-N-methylimidoformamide] |  | ≥ 70 | ≥ 70 | ≥ 70 | ≥ 70
 | Cc1cc(Oc2nc(Cc3ccc(Cl)c(Cl)c3)ns2)c(C)cc1N=CN1CCCCC1 [Example 48, 4-{[3-(3,4-dichlorobenzyl)-1,2,4-thiadiazol-5-yl]oxy}-2,5-dimethyl-N-(piperidin-1-ylmethylidene)aniline] | ≥ 70 |  | ≥ 70 |  | 
2.05 | COc1ccccc1Cc1nsc(Oc2cc(C)c(N=CN3CCCCC3)cc2C)n1 [Example 50, 4-{[3-(2-methoxybenzyl)-1,2,4-thiadiazol-5-yl]oxy}-2,5-dimethyl-N-(piperidin-1-ylmethylidene)aniline] | ≥ 70 | ≥ 70 | ≥ 70 |  | 
